One may read the melting point as the temperature of the solid-liquid transition. As usually defined, the IC50 is the concentration that inhibits the measured activity by half.

Results on 12 molecules are retold here after article PMC8831383, “Visualization-Based Discovery of Vanin-1 Inhibitors for Colitis” (Frontiers in Chemistry, 2022).

Molecules are shown by their SMILES.

The subject of one data set is vanin-1. On the set-up: method as in Jansen et al., 2013. The note with it: ref Jansen et al., 2013; cited from earlier work.
For data set [1], the target named is T1, vanin-1 enzyme (Mus musculus, UniProt Q9Z0K8).
T1 construct: from tissue; host or cells: whole living FVB-luc+ transgenic mice
T1 sequence (Q9Z0K8 24-512): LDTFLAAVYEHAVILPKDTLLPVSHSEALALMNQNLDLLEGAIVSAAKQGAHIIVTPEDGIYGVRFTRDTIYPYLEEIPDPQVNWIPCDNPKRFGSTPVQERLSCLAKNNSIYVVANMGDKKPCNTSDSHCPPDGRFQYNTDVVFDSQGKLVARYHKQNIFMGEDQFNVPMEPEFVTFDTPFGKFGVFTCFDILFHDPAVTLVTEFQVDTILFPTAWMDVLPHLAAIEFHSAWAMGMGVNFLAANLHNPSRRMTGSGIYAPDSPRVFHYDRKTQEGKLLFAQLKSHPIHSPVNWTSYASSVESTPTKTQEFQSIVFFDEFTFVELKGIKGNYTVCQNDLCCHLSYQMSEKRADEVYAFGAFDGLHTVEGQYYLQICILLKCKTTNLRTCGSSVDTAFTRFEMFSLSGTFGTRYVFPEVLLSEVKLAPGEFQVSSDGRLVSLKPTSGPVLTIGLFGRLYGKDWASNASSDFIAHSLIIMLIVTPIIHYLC
Description: Inhibition of vanin-1 in transgenic mice in vivo, bioluminescence imaging with probe PA-AL. On the set-up: species or system FVB-luc + mice. The note with it: gavage, lead compound 25 mg/kg, compound a 50 mg/kg, PA-AL i.p. 1.5 h later. How it is done:
We divided FVB-luc + mice into three groups: • (1) Control group: gavage lead compound, the dose is 25 mg/kg, the gavage volume is 200 μl; • (2) Experimental group: gavage compound a, the dose is 50 mg/kg, the gavage volume is 200 μl; • (3) Blank group: Administer normal saline, the volume of intragastric administration is 200 μl.
After intragastric administration, mice were fed routinely for 1.5 h, and then mice in each group were anesthetized with 4% chloral hydrate solution and injected intraperitoneally with physiological saline solution of bioluminescent probe PA-AL (1 mM, 200 μl). In 55 min, the bioluminescence imaging of the whole body of each group of mice was measured every 5 min, and then the bioluminescence intensity was obtained by analyzing the images with the software of the in vivo imager.

The target of data set [2] is T2, human recombinant VNN1 enzyme (Homo sapiens, UniProt O95497).
T2 sequence (O95497 22-513): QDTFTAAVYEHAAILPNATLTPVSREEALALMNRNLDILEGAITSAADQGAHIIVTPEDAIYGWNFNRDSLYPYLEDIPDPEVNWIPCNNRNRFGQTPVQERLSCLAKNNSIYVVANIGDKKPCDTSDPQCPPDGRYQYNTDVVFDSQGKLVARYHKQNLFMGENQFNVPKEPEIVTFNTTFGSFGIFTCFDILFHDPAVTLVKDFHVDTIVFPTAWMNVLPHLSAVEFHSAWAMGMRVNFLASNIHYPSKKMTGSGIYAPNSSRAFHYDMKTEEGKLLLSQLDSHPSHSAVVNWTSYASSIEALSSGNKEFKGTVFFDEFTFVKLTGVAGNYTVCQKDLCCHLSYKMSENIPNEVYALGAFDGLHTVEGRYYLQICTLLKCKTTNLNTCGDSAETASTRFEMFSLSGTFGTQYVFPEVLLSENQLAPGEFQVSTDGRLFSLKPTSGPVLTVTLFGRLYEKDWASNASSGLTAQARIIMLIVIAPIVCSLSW
Put plainly: Inhibitory activity against human recombinant VNN1 enzyme in vitro with fluorescent probe PA-AFC. The note with it: human recombinant VNN1 30 ng/ml, probe PA-AFC 20 μM, 37°C, 30 min + 30 min. In kind it is biochemical. How it is done:
This study was used human recombinant VNN1 enzyme and fluorescent probe PA-AFC to determine the IC50 value of inhibitors.
Dilute the lead compound and each inhibitor to be tested with buffer to, for example, 400, 200, 100, 50, 25, 12.50, 6.25, 3.13, and 1.56 μM, 781 nM, 391 nM The gradient concentration of the solution. Prepare the human recombinant VNN1 enzyme solution at a concentration of 30 ng/ml. Prepare the fluorescent probe PA-AFC solution with a concentration of 20 μM.
Add 50 μl of gradient concentration of the inhibitor to be tested to each well of the black 96-well plate, and then continue to add 50 μl of the newly prepared human recombinant VNN1 enzyme solution to each well. Among them, the control group and the blank group were replaced with the same volume of buffer. After the solution is mixed, place the black 96-well plate on a shaker at 37°C for 30 min. Continue to add 100 μl of the prepared fluorescent probe solution to each well of the black 96-well plate. After mixing, place the black 96-well plate on a shaker at 37°C and incubate for 30 min. Take the black 96-well plate out of the shaker and place it in a POLARstar Omega microplate reader. Use a 420 nm filter for the excitation light and a 510 nm filter for the emission light. Record the fluorescence intensity data at 510 nm. Through GraphpadPrism mapping, the IC50 value of each inhibitor to be tested was obtained.

The test system of data set [3] is TNBS-induced mouse colitis model. Put plainly: TNBS-induced mouse colitis model. In kind it is in vivo, C57BL/6J mice. Particulars: TNBS colitis mice; lead compound 25 mg/kg, compound a 50 mg/kg once a day, 8 days; TNBS model group 10.0 ± 1.63. How it is done: The dose of TNBS used in this experiment is 2.0 mg/50% alcohol enema, each with a volume of 100 μl. The preparation method is 40 μl of 5% TNBS (w/v) aqueous solution, 50 μl of absolute ethanol, and 10 μl of distilled water. well mixed.
The study bred C57BL/6J mice adaptively with ordinary diet for 1 week, in an ordinary clean environment, normal light and free drinking water. The mice were randomly divided into 3 groups and numbered, fasted without water for 24 h before modeling. After weighing the mouse, use isoflurane anesthesia, insert a rubber hose with a diameter of about 0.2–0.3 cm into the mouse 3.5 cm from the anus, and slowly push 100 μl of the 2.0 mg TNBS/50% alcohol mixture solution through the hose Enter the colon, slowly pull out the plastic tube after the administration, pinch the anus with your hand, and invert it for 1 min, so that the model agent can fully penetrate the intestinal cavity of the mouse. Then put them back into the breeding cage to keep lying down, wait for the mice to wake up naturally, and create a model together. The mice in the control group were given 200 μl of lead compound solution (25 mg/kg) once a day, the mice in the experimental group were given 200 μl of compound 1c solution (50 mg/kg) once a day, and the mice in the model group were given physiological salt once a day 200 μl of aqueous solution. […]

Data set [4] has as its target T3, Vanin-1 enzyme (Homo sapiens, UniProt O95497).
T3 construct: endogenous in cells; host or cells: ES-2-Fluc (human ovarian cancer cells expressing firefly luciferase)
T3 sequence (O95497 22-513): T2 sequence (O95497 22-513)
Put plainly: Inhibition of Vanin-1 enzyme at the cellular level in ES-2-Fluc cells with bioluminescent probe PA-AL. Particulars: 30 min incubation with inhibitor, probe PA-AL 20 μM. In kind it is cell-based. How it is done:
This study explores the inhibition of Vanin-1 enzyme at the cellular level using firefly luciferase labeled human ovarian cancer cells (ES-2-Fluc) and the bioluminescent probe PA-AL.
Take a black 96-well plate with a transparent bottom, dilute the cells to a cell suspension with a concentration of 4 × 10^5 cells/ml, add 100 μl to each well to reach about 40,000 cells in each well, and incubate at 37°C for 12 h. Dilute the lead compound and each inhibitor to be tested to the final concentration of 200, 100, 50, 25, 12.50, 6.25, 3.13, 1.56, and 0.78 μM, and add 100 μl to each well. After mixing, transfer to a shaker at 37°C and incubate the cells with the inhibitor for 30 min. Prepare bioluminescent probe PA-AL solution with a concentration of 20 μM. Immediately after adding, put it into in vivo imaging for bioluminescence imaging. The bioluminescence intensity value of each hole was analyzed by the software of the living body imager, and the exposure time was 1 min. Graphpad Prism software is used to draw the IC50 value of each inhibitor to be tested.

Molecule `CC(C)(CO)C(O)C(=O)NCCC(=O)Nc1ccc2c(C(F)(F)F)cc(=O)oc2c1` (centres unmarked) came in with a melting point of 92.4 to 93.6 °C.

As to `CC(C)(CO)[C@@H](O)C(=O)NCCC(=O)Cc1ccccc1` [RR6], the IC50 with vanin-1 was 540 nM.

Consider `O=C(c1ccc(NCc2cccnc2)cc1)N1CCC2(CCOCC2)C1` [a, (4-((pyridin-3-ylmethyl)amino)phenyl)(8-oxa-2-azaspiro[4.5]decan-2-yl)methanone], for which the melting point lay in the range of 113.2 to 114.7 °C. In addition, at vanin-1 enzyme [1] (30 min after probe injection), the “bioluminescence intensity at the peak relative to the blank group” value was “about one-half”. In addition, the “bioluminescence intensity of transgenic mice at the peak” value on vanin-1 enzyme [1] (about 30 min after probe injection) is given as “significantly reduced”. Further, the IC50 in data set [2] worked out at 20.2 ± 1.32 µM. For the same molecule, in data set [3], the DAI score turned out to be 6.7 ± 0.95. For the same molecule, the midpoint of inhibition at Vanin-1 enzyme [4], the IC50, lay at 9.08 ± 0.57 µM.

`O=C(c1ccc(NCc2cccnc2)cc1)N1CC2(CCOCC2)C1` [b, (4-((pyridin-3-ylmethyl)amino)phenyl)(7-oxa-2-azaspiro[3.5]nonan-2-yl)methanone] yielded a melting point of 126.1 to 126.5 °C. Moreover, the IC50 in data set [2] is 26.2 ± 0.56 µM. This molecule also showed an IC50 against Vanin-1 enzyme [4] of 12.3 ± 1.28 µM.

`O=C(c1ccc(NCc2cnccn2)cc1)N1CCC2(CCOCC2)C1` [c, (4-((pyrazin-2-ylmethyl)amino)phenyl)(8-oxa-2-azaspiro[4.5]decan-2-yl)methanone] came in with a melting point of 173.4 to 173.8 °C. Further, the 50% inhibitory concentration (IC50) in data set [2] came out at 30.33 ± 0.11 µM. The IC50 against Vanin-1 enzyme [4] was determined as 16.5 ± 1.92 µM.

Regarding `O=C(c1ccc(NCc2cnccn2)cc1)N1CC2(CCOCC2)C1` [d, (4-((pyrazin-2-ylmethyl)amino)phenyl)(7-oxa-2-azaspiro[3.5]nonan-2-yl)methanone], the melting point was in the range of 191.6 to 191.9 °C. Besides, the IC50 in data set [2] was 28.5 ± 0.35 µM. The same molecule came in with an IC50 on Vanin-1 enzyme [4] of 15.3 ± 0.75 µM.

As for `O=C(c1ccc(NCc2cccnc2)cn1)N1CCC2(CCOCC2)C1` [e, (5-((pyridin-3-ylmethyl)amino)pyridin-2-yl)(8-oxa-2-azaspiro[4.5]decan-2-yl)methanone], the melting point lay in the range of 176.5 to 177.2 °C. Moreover, in data set [2], the IC50 was found to be 43.7 ± 1.07 µM. It took 35.8 ± 2.15 µM to reach half-maximal inhibition on Vanin-1 enzyme [4] (IC50).

Consider `O=C(c1ccc(NCc2cccnc2)cn1)N1CC2(CCOCC2)C1` [f, (5-((pyridin-3-ylmethyl)amino)pyridin-2-yl)(7-oxa-2-azaspiro[3.5]nonan-2-yl)methanone], for which the melting point is 202 to 202.3 °C. The IC50 in data set [2] is 46.2 ± 1.27 µM. At Vanin-1 enzyme [4], this molecule returned an IC50 of 22 ± 2.66 µM.

Turning to `O=C(c1ccc(NCc2cnccn2)cn1)N1CCC2(CCOCC2)C1` [g, (5-((pyrazin-2-ylmethyl)amino)pyridin-2-yl)(8-oxa-2-azaspiro[4.5]decan-2-yl)methanone], the melting point fell in the range of 123.6 to 124.1 °C. Also, in data set [2], the IC50 came out at 51.5 ± 1.65 µM. Moreover, on Vanin-1 enzyme [4], the IC50 is 39.8 ± 0.91 µM.

Take `O=C(c1ccc(NCc2cnccn2)cn1)N1CC2(CCOCC2)C1` [h, (5-((pyrazin-2-ylmethyl)amino)pyridin-2-yl)(7-oxa-2-azaspiro[3.5]nonan-2-yl)methanone]: the melting point is 104.6 to 105 °C. Moreover, in data set [2], the IC50 was 84.6 ± 2.5 µM. At Vanin-1 enzyme [4], this molecule displayed an IC50 of 59.6 ± 5.27 µM.

Turning to `COc1cc(C(=O)N2CCC3(CCOCC3)C2)ccc1NCc1cccnc1` [i, (3-methoxy-4-((pyridin-3-ylmethyl)amino)phenyl)(8-oxa-2-azaspiro[4.5]decan-2-yl)methanone], the melting point was 128.2 to 129.6 °C. In addition, the IC50 in data set [2] worked out at 115 ± 13 µM. This molecule registered an IC50 against Vanin-1 enzyme [4] of 93.7 ± 8.08 µM.

`COc1cc(C(=O)N2CC3(CCOCC3)C2)ccc1NCc1cccnc1` [j, (3-methoxy-4-((pyridin-3-ylmethyl)amino)phenyl)(7-oxa-2-azaspiro[3.5]nonan-2-yl)methanone] gave a melting point of 136.4 to 136.9 °C. The IC50 in data set [2] stood at 138.3 ± 0.68 µM. Besides, inhibition at Vanin-1 enzyme [4] was half-maximal at 80.6 ± 6.21 µM (IC50).
